In PubChem BioAssay (NCI):
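Growth conditions: 96-well plates. Treatment: test compound, 48 hours, 5 concentrations. Analysis: linear interpolation between bracketing concentrations; unreached endpoints set to highest concentration. TGI denotes the concentration required for complete inhibition of growth.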

Experiments:
Test in all cases: DTP human tumour cell line panel, 48 h
786-0 renal = test system: 786-0 renal
A498 renal = test system: A498 renal
A549 NSCLC = test system: A549 NSCLC
ACHN renal = test system: ACHN renal
BT-549 breast = test system: BT-549 breast
CAKI-1 renal = test system: CAKI-1 renal
CCRF-CEM leukemia = test system: CCRF-CEM leukemia
COLO 205 colon = test system: COLO 205 colon
DU-145 prostate = test system: DU-145 prostate
EKVX NSCLC = test system: EKVX NSCLC
HCC-2998 colon = test system: HCC-2998 colon
HCT-116 colon = test system: HCT-116 colon
HCT-15 colon = test system: HCT-15 colon
HL-60(TB) leukemia = test system: HL-60(TB) leukemia
HOP-62 NSCLC = test system: HOP-62 NSCLC
HOP-92 NSCLC = test system: HOP-92 NSCLC
HS 578T breast = test system: HS 578T breast
HT29 colon = test system: HT29 colon
IGROV1 ovarian = test system: IGROV1 ovarian
K-562 leukemia = test system: K-562 leukemia
KM12 colon = test system: KM12 colon
LOX IMVI melanoma = test system: LOX IMVI melanoma
M14 melanoma = test system: M14 melanoma
MCF7 breast = test system: MCF7 breast
MDA-MB-231 breast = test system: MDA-MB-231 breast
MDA-MB-435 = test system: MDA-MB-435
MOLT-4 leukemia = test system: MOLT-4 leukemia
NCI-H226 lung = test system: NCI-H226 lung
NCI-H23 lung = test system: NCI-H23 lung
NCI-H460 lung = test system: NCI-H460 lung
NCI-H522 lung = test system: NCI-H522 lung
NCI/ADR-RES ovarian = test system: NCI/ADR-RES ovarian
OVCAR-3 ovarian = test system: OVCAR-3 ovarian
OVCAR-4 ovarian = test system: OVCAR-4 ovarian
OVCAR-5 ovarian = test system: OVCAR-5 ovarian
OVCAR-8 ovarian = test system: OVCAR-8 ovarian
PC-3 prostate = test system: PC-3 prostate
RPMI-8226 leukemia = test system: RPMI-8226 leukemia
RXF 393 renal = test system: RXF 393 renal
SF-268 CNS = test system: SF-268 CNS
SF-295 CNS = test system: SF-295 CNS
SF-539 CNS = test system: SF-539 CNS
SK-MEL-2 melanoma = test system: SK-MEL-2 melanoma
SK-MEL-28 melanoma = test system: SK-MEL-28 melanoma
SK-MEL-5 melanoma = test system: SK-MEL-5 melanoma
SK-OV-3 ovarian = test system: SK-OV-3 ovarian
SN12C renal = test system: SN12C renal
SNB-19 CNS = test system: SNB-19 CNS
SNB-75 CNS = test system: SNB-75 CNS
SR leukemia = test system: SR leukemia
SW-620 colon = test system: SW-620 colon
T-47D breast = test system: T-47D breast
TK-10 renal = test system: TK-10 renal
U251 CNS = test system: U251 CNS
UACC-257 melanoma = test system: UACC-257 melanoma
UACC-62 melanoma = test system: UACC-62 melanoma
UO-31 renal = test system: UO-31 renal

Measured: TGI

CC1=NN(c2nc(N)nc(COCc3nc(N)nc(N4N=C(C)CC4(C)C)n3)n2)C(C)(C)C1
> 100 µM: all assays above
